biological target: T1, hFAAH (Homo sapiens, UniProt O00519); assay: Fluorimetric assay with hFAAH microsomes (enzymatic, fluorescence based); assay type: biochemical; conditions: compound at 1 uM, AA-AMC substrate
T1 construct: expressed in transfected cells; host or cells: HEK293-TRex (Invitrogen) stably transfected with hFAAH in the pcDNA5-Tet-off vector, or T84 human colon epithelial cells (endogenous hFAAH); used as a microsomal preparation
T1 sequence (O00519 1-579): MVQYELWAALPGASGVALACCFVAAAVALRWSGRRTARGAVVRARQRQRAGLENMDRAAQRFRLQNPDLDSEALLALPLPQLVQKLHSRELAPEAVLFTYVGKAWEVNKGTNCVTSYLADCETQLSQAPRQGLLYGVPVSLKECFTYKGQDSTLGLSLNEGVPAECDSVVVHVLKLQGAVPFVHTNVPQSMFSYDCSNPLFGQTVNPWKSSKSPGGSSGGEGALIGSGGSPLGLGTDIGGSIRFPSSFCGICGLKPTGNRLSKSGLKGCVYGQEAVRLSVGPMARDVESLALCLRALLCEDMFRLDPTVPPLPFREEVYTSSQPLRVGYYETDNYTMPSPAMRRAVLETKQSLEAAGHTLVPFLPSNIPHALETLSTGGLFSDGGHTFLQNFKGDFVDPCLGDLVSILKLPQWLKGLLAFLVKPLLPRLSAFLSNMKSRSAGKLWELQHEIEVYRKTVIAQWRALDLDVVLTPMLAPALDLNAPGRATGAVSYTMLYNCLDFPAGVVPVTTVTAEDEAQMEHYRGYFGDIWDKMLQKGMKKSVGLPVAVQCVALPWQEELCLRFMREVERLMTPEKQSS
Procedure, shortened: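 Microsomes from T84 cells (endogenous hFAAH) or doxycycline-induced HEK293-TRex cells stably expressing hFAAH, 10 μg per well, in 50 mM HEPES pH 7.4, 1 mM EDTA, 1.4 mg/mL BSA with 2 μM AA-AMC. Kinetic fluorescence read (ex 355/em 460 nm, 275 cycles); activity as % inhibition, 7 concentrations in duplicate.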

inhibition at 1 µM	Compound
> 75%	COc1ccccc1CN1Cc2ncnc(Nc3cnc4ccccc4c3)c2C1 [Compound 83, [6-(2-Methoxy-benzyl)-6,7-dihydro-5H-pyrrolo[3,4-d]pyrimidin-4-yl]-quinolin-3-yl-amine]
> 25%	Cc1ccc(CN2Cc3ncnc(Nc4cnc5ccccc5c4)c3C2)c(C)c1 [Compound 93, [6-(2,4-Dimethyl-benzyl)-6,7-dihydro-5H-pyrrolo[3,4-d]pyrimidin-4-yl]-quinolin-3-yl-amine]
> 75%	c1cc2c(c(CN3Cc4ncnc(Nc5cnc6ccccc6c5)c4C3)c1)OCC2 [Compound 101, [6-(2,3-Dihydro-benzofuran-7-ylmethyl)-6,7-dihydro-5H-pyrrolo[3,4-d]pyrimidin-4-yl]-quinolin-3-yl-amine]
> 75%	Cc1cccc(CN2Cc3ncnc(Nc4cnc5ccccc5c4)c3C2)c1C [Compound 87, [6-(2,3-Dimethyl-benzyl)-6,7-dihydro-5H-pyrrolo[3,4-d]pyrimidin-4-yl]-quinolin-3-yl-amine]
< 25%	Cc1cccnc1CN1Cc2ncnc(Nc3cnc4ccccc4c3)c2C1 [Compound 79, [6-(3-Methyl-pyridin-2-ylmethyl)-6,7-dihydro-5H-pyrrolo[3,4-d]pyrimidin-4-yl]-quinolin-3-yl-amine]
> 75%	c1ccc(C2CC2)c(CN2Cc3ncnc(Nc4cnc5ccccc5c4)c3C2)c1 [Compound 112, [6-(2-Cyclopropyl-benzyl)-6,7-dihydro-5H-pyrrolo[3,4-d]pyrimidin-4-yl]-quinolin-3-yl-amine]

Further lines, the compound ahead of its results:

Compound	inhibition at 1 µM
FC(F)(F)CCN1Cc2ncnc(Nc3cnc4ccccc4c3)c2C1 [Compound 31, Quinolin-3-yl-[6-(3,3,3-trifluoro-propyl)-6,7-dihydro-5H-pyrrolo[3,4-d]pyrimidin-4-yl]-amine]	> 50%
CCC(C)N1Cc2ncnc(Nc3cnc4ccccc4c3)c2C1 (stereo not shown) [Compound 35, (6-sec-Butyl-6,7-dihydro-5H-pyrrolo[3,4-d]pyrimidin-4-yl)-quinolin-3-yl-amine]	< 25%
CC(C)CN1Cc2ncnc(Nc3cnc4ccccc4c3)c2C1 [Compound 7, (6-Isobutyl-6,7-dihydro-5H-pyrrolo[3,4-d]pyrimidin-4-yl)-quinolin-3-yl-amine]	> 25%
c1ccc2ncc(Nc3ncnc4c3CN(C3COC3)C4)cc2c1 [Compound 44, (6-Oxetan-3-yl-6,7-dihydro-5H-pyrrolo[3,4-d]pyrimidin-4-yl)-quinolin-3-yl-amine]	< 25%
Cc1nc(C(F)(F)F)ccc1CN1Cc2ncnc(Nc3cnc4ccccc4c3)c2C1 [Compound 74, [6-(2-Methyl-6-trifluoromethyl-pyridin-3-ylmethyl)-6,7-dihydro-5H-pyrrolo[3,4-d]pyrimidin-4-yl]-quinolin-3-yl-amine]	> 25%
O=S(=O)(Cc1ccccc1)N1Cc2ncnc(Nc3cnc4ccccc4c3)c2C1 [Compound 63, (6-Phenylmethanesulfonyl-6,7-dihydro-5H-pyrrolo[3,4-d]pyrimidin-4-yl)-quinolin-3-yl-amine]	< 25%
c1ccc2ncc(Nc3ncnc4c3CN(C3CCCCC3)C4)cc2c1 [Compound 23, (6-Cyclohexyl-6,7-dihydro-5H-pyrrolo[3,4-d]pyrimidin-4-yl)-quinolin-3-yl-amine]	> 25%
Cc1ccsc1S(=O)(=O)N1Cc2ncnc(Nc3cnc4ccccc4c3)c2C1 [Compound 56, [6-(3-Methyl-thiophene-2-sulfonyl)-6,7-dihydro-5H-pyrrolo[3,4-d]pyrimidin-4-yl]-quinolin-3-yl-amine]	> 25%
COc1ccccc1S(=O)(=O)N1Cc2ncnc(Nc3cnc4ccccc4c3)c2C1 [Compound 73, [6-(2-Methoxy-benzenesulfonyl)-6,7-dihydro-5H-pyrrolo[3,4-d]pyrimidin-4-yl]-quinolin-3-yl-amine]	> 25%
CCCCCN1Cc2ncnc(Nc3cnc4ccccc4c3)c2C1 [Compound 10, (6-Pentyl-6,7-dihydro-5H-pyrrolo[3,4-d]pyrimidin-4-yl)-quinolin-3-yl-amine]	> 50%

Source: patent US20110257208A1, “COMPOUNDS USEFUL AS FAAH MODULATORS AND USES THEREOF” (priority 2008, published 2011)
